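Interpolation was linear, between the two tested concentrations surrounding the appropriate level; five concentrations were tested over 48 hours in 96-well plates. TGI denotes the concentration required for complete inhibition of growth.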
How the values were obtained:
Assay in all cases: NCI-60 cell line screen, 48 h
786-0 renal = test system: 786-0 renal
A549 NSCLC = test system: A549 NSCLC
LOX IMVI melanoma = test system: LOX IMVI melanoma
MDA-N = test system: MDA-N
MOLT-4 leukemia = test system: MOLT-4 leukemia
NCI-H460 lung = test system: NCI-H460 lung
SK-MEL-28 melanoma = test system: SK-MEL-28 melanoma
SN12C renal = test system: SN12C renal
UACC-257 melanoma = test system: UACC-257 melanoma
OVCAR-8 ovarian = test system: OVCAR-8 ovarian
SF-268 CNS = test system: SF-268 CNS

| Structure (SMILES) | TGI (786-0 renal) | TGI (A549 NSCLC) | TGI (LOX IMVI melanoma) | TGI (MDA-N) | TGI (MOLT-4 leukemia) | TGI (NCI-H460 lung) | TGI (SK-MEL-28 melanoma) | TGI (SN12C renal) | TGI (UACC-257 melanoma) | TGI (OVCAR-8 ovarian) | TGI (SF-268 CNS) |
| --- | --- | --- | --- | --- | --- | --- | --- | --- | --- | --- | --- |
| CCOC(=O)C(=O)N1C(C)=C(C(=O)OCC)CC(C(=O)OCC)=C1C | > 100 µM | > 100 µM | > 100 µM | > 100 µM | > 100 µM | > 100 µM | > 100 µM | > 100 µM | > 100 µM | – | – |
| CC(C)(CO)N1C(=O)c2ccccc2C1(O)c1ccc(Cl)cc1 (centres undefined) | > 100 µM | > 100 µM | – | > 100 µM | > 100 µM | > 100 µM | > 100 µM | > 100 µM | > 100 µM | > 100 µM | > 100 µM |
| CCn1c(=O)c2c3cc(O)ccc3oc2c2ccc(O)cc21 | > 100 µM | 86.9 µM | – | > 100 µM | > 100 µM | > 100 µM | > 100 µM | > 100 µM | > 100 µM | > 100 µM | > 100 µM |
| COC1C=CC23c4cc5c(cc4C(O)OC2CN(C)C3C1)OCO5 (centres undefined) | 11 µM | 9.49 µM | 6.85 µM | – | 5.32 µM | 56.7 µM | – | 7.88 µM | 7.3 µM | 9.2 µM | 26.9 µM |
| COc1cccc(C2c3cc4c(cc3OC(N3CCCC3)C2C)OCO4)c1OC (centres undefined) | 18.8 µM | 25.5 µM | 4.07 µM | 19.6 µM | 10.7 µM | 12.5 µM | – | 14.5 µM | – | 39.8 µM | 21 µM |
| C=CCCCC12CCCc3cccc(c31)NC2=O (centres undefined) | – | 51.2 µM | 62.3 µM | – | 55.1 µM | 33.8 µM | – | > 100 µM | 50.4 µM | – | – |
| COc1ccc(NC2Oc3cc4c(cc3C(c3cc(OC)c(OC)c(OC)c3)C2C)OCO4)cc1 (centres undefined) | > 81.1 µM | > 61.9 µM | > 100 µM | – | > 100 µM | > 48.5 µM | > 100 µM | > 81.5 µM | > 78.5 µM | > 45.4 µM | > 100 µM |
| CCN(CCCN(CC)C(=O)N[C@@H](Cc1ccccc1)C(=O)NC)C(=O)N[C@@H](Cc1ccccc1)C(=O)NC | > 100 µM | > 100 µM | > 100 µM | > 100 µM | – | > 100 µM | > 100 µM | – | > 100 µM | > 100 µM | > 100 µM |
| Cc1ccc(C(=O)Nc2ccc(CP(=O)(O)O)cc2)cc1NC(=O)c1cccc(NC(=O)Nc2cccc(C(=O)Nc3cc(C(=O)Nc4ccc(CP(=O)(O)O)cc4)ccc3C)c2)c1 | > 100 µM | > 100 µM | > 100 µM | > 100 µM | – | > 100 µM | > 100 µM | > 100 µM | > 100 µM | > 100 µM | > 100 µM |
| O=C(CCc1ccc(O)cc1)c1c(O)cc(O)cc1OC1OC(CO)C(O)C(O)C1O (centres undefined) | > 100 µM | > 100 µM | > 100 µM | > 100 µM | – | – | > 100 µM | – | > 100 µM | – | > 100 µM |
| COC(c1ccc(C(C)(C)C)cc1)(c1ccc(C(C)(C)C)cc1)c1cc(C(O)(c2cc(C(OC)(c3ccc(C(C)(C)C)cc3)c3ccc(C(C)(C)C)cc3)c(C)cc2C)c2cc(C(OC)(c3ccc(C(C)(C)C)cc3)c3ccc(C(C)(C)C)cc3)c(C)cc2C)c(C)cc1C | – | > 100 µM | > 100 µM | > 100 µM | > 100 µM | > 100 µM | > 100 µM | – | > 100 µM | > 100 µM | > 100 µM |
| N#Cc1c(OCCF)c2ccccc2n2c1nc1ccccc12 | – | > 100 µM | > 100 µM | > 100 µM | > 100 µM | > 100 µM | > 100 µM | – | > 100 µM | > 100 µM | > 100 µM |
| O=C1/C(=C/c2ccc(Br)s2)NC(=S)N1CN1CCOCC1 | > 100 µM | – | 61.4 µM | > 100 µM | > 100 µM | > 100 µM | > 100 µM | > 100 µM | > 100 µM | > 100 µM | > 100 µM |
| O=c1nc2c(c(-c3cccc(Cl)c3)[nH]1)COC/C2=C\c1cccc(Cl)c1 | > 100 µM | – | > 100 µM | > 100 µM | > 100 µM | > 100 µM | – | > 100 µM | > 100 µM | > 100 µM | > 100 µM |
| CC1=CC=CC(C)(C)CC1(O[Si](C)(C)C)C(F)(F)F (centres undefined) | > 100 µM | > 100 µM | > 100 µM | > 100 µM | – | > 100 µM | > 100 µM | > 100 µM | > 100 µM | > 100 µM | > 100 µM |
| O=C(OCc1ccccc1)OOC(=O)OCc1ccccc1 | – | > 100 µM | – | – | > 100 µM | > 100 µM | > 100 µM | > 100 µM | > 100 µM | – | > 100 µM |
| O=C(O)CNC(=O)c1ccc([As](=O)(O)O)cc1 | > 100 µM | > 100 µM | > 100 µM | > 100 µM | > 100 µM | > 100 µM | > 100 µM | > 100 µM | – | > 100 µM | > 100 µM |
| Cc1nc2ccc([N+](=O)[O-])cc2c(=O)n1C(=S)Nc1cccc(Cl)c1 | 78 µM | 92 µM | 35.3 µM | 39.4 µM | > 100 µM | 52.6 µM | 40.6 µM | 51.4 µM | 41.2 µM | – | 42.9 µM |
| CC1=C2c3ccccc3N(C(=O)/C=C/C(=O)O)[C@H]2[C@H]2C(=O)OC(=O)[C@H]2C1 | – | > 10 µM | – | > 10 µM | > 10 µM | > 10 µM | > 10 µM | > 10 µM | – | > 10 µM | > 10 µM |
| C/C(=N/NC(=S)Nc1cccc(C)c1)c1ccccn1 | 4.26 µM | 8.51 µM | 9.93 µM | 3.61 µM | – | 5.59 µM | 7.61 µM | 6.61 µM | 4.44 µM | 2.33 µM | 13.9 µM |
| CC(=O)Nc1ccc(Cl)c(Cl)c1 | > 100 µM | > 100 µM | > 100 µM | – | > 100 µM | > 100 µM | > 100 µM | > 100 µM | > 100 µM | > 100 µM | > 100 µM |
| CO/N=C1/c2sccc2[C@H](NC(=O)CNC(=O)OC(C)(C)C)[C@@H]1O | – | > 100 µM | > 100 µM | > 100 µM | > 100 µM | > 100 µM | > 100 µM | > 100 µM | > 100 µM | > 100 µM | > 100 µM |
| O=C1C(Cl)N(c2ccccc2)C1c1c[nH]c2ccccc12 (centres undefined) | – | > 100 µM | – | – | > 100 µM | > 100 µM | > 100 µM | > 100 µM | > 100 µM | > 100 µM | > 100 µM |
